Measurements from ChEMBL document CHEMBL5244232, “Progress in 11β-HSD1 inhibitors for the treatment of metabolic diseases: A comprehensive guide to their chemical structure diversity in drug development” (Eur J Med Chem, 2020).
Values joined by “and” are separate entries in the source; they are usually repeats but may differ in a detail not shown here. Equal entries are not always repeated.

Legend:
[1] = target: T1, 11-beta-hydroxysteroid dehydrogenase 1 (Homo sapiens, UniProt P28845); assay: Inhibition of human 11beta-HSD1
T1 sequence (P28845 whole entry): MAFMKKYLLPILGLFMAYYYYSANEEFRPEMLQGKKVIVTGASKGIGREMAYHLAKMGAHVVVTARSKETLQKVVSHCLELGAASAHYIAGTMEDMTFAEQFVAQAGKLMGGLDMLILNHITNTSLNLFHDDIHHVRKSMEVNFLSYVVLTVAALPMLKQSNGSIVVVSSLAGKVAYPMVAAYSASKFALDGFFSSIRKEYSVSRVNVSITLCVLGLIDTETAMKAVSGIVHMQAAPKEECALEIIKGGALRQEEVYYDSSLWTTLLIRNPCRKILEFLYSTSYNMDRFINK

[2] = target: T2, 11-beta-hydroxysteroid dehydrogenase 1 (Mus musculus, UniProt P50172); assay: Inhibition of mouse 11beta-HSD1
T2 sequence (P50172 whole entry): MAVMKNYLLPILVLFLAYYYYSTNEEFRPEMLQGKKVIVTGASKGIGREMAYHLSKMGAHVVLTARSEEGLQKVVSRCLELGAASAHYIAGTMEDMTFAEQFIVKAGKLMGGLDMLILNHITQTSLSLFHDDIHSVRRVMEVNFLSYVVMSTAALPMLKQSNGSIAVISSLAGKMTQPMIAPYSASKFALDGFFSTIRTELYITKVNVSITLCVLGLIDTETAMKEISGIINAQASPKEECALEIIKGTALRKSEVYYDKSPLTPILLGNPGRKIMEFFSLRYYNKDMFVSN

[3] = target: T1, 11-beta-hydroxysteroid dehydrogenase 1; assay: Inhibition of human 11beta-HSD1 using steroid as substrate incubated for 20 to 30 mins by microplate fluorimeter analysis
[4] = target: T2, 11-beta-hydroxysteroid dehydrogenase 1; assay: Inhibition of mouse 11beta-HSD1 expressed in CHO-K1 cells incubated for 3 hrs by HTRF assay; type: cell-based
[5] = target: T1, 11-beta-hydroxysteroid dehydrogenase 1; assay: Inhibition of human 11beta-HSD1 incubated for 30 mins by HPLC-MS/MS analysis
[6] = target: T3, 11-beta-hydroxysteroid dehydrogenase 1 (Rattus norvegicus, UniProt P16232); assay: Inhibition of rat 11beta-HSD1 expressed in Leydig cells; type: cell-based
T3 sequence (P16232 whole entry): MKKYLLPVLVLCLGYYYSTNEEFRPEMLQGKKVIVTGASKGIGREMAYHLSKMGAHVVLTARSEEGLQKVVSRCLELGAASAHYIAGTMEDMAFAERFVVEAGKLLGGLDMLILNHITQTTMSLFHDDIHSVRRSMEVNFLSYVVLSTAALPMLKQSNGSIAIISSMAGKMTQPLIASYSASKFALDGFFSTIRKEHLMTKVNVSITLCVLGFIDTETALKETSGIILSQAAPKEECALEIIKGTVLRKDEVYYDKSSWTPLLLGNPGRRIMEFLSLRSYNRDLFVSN

[7] = Inhibition of rat 11beta-HSD2 expressed in Leydig cells; type: cell-based
[8] = target: T2, 11-beta-hydroxysteroid dehydrogenase 1; assay: Inhibition of mouse 11beta-HSD1 expressed in CHO-K1 cells incubated for 24 hrs by HTRF assay; type: cell-based
[9] = target: T1, 11-beta-hydroxysteroid dehydrogenase 1; assay: Inhibition of human 11beta-HSD1 in liver microsome incubated for 24 hrs by LC-MS analysis; type: microsomes
[10] = target: T2, 11-beta-hydroxysteroid dehydrogenase 1; assay: Inhibition of mouse 11beta-HSD1 in liver microsome incubated for 24 hrs by LC-MS analysis; type: microsomes
[11] = target: Hydroxysteroid 11-beta dehydrogenase 1 (Macaca mulatta, UniProt Q56D22); assay: Inhibition of monkey 11beta-HSD1 in liver microsome incubated for 24 hrs by LC-MS analysis; type: microsomes
Sequence of Hydroxysteroid 11-beta dehydrogenase 1 (Q56D22 whole entry): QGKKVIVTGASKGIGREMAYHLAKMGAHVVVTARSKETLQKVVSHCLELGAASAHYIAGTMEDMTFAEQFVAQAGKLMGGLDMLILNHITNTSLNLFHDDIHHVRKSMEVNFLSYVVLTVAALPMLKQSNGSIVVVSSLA

[12] = target: T2, 11-beta-hydroxysteroid dehydrogenase 1; assay: Inhibition of mouse 11beta-HSD1 expressed in 3T3-L1 cells incubated for 24 hrs by HTRF assay; type: cell-based
[13] = target: T2, 11-beta-hydroxysteroid dehydrogenase 1; assay: Inhibition of mouse 11beta-HSD1 incubated for 24 hrs by HTRF assay
[14] = target: T4, 11-beta-hydroxysteroid dehydrogenase type 2 (Homo sapiens, UniProt P80365); assay: Inhibition of human 11beta-HSD2 incubated for 2 hrs by HPLC analysis
T4 sequence (P80365 whole entry): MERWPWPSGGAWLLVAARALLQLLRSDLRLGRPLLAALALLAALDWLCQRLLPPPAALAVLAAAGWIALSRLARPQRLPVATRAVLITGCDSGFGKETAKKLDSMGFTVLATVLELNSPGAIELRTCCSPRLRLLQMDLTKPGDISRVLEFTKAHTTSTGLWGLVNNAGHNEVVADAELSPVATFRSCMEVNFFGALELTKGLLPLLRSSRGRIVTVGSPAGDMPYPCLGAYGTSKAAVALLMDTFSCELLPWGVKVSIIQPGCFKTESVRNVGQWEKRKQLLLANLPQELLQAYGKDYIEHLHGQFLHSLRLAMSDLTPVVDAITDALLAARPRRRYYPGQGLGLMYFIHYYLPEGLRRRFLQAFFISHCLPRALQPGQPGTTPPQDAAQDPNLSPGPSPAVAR

[15] = target: T3, 11-beta-hydroxysteroid dehydrogenase 1; assay: Inhibition of rat 11beta-HSD1
[16] = target: T3, 11-beta-hydroxysteroid dehydrogenase 1; assay: Inhibition of rat 11beta-HSD1 in kidney microsomes incubated for 20 mins by HPLC analysis; design: species or system Microsome
[17] = target: 11-beta-hydroxysteroid dehydrogenase 1 (Rattus norvegicus) (UniProt P16232); assay: Inhibition of rat 11beta-HSD1 in adipose tissue microsome

O=S(=O)(c1ccccc1)N1CCN(c2ncccc2C(F)(F)F)CC1 gave an IC50 [1] of 61 nM.
C[C@@H](c1ccc(-c2ccn(C)c(=O)c2)cc1)N1CC[C@](CC(C)(C)O)(c2ccccc2)OC1=O gave an IC50 [2] of 4.3 nM.
O=C(Cc1csc(NS(=O)(=O)c2c(Cl)cc(Cl)cc2Cl)n1)N1CCOCC1 gave an IC50 [3] of 335 nM.
With O=S(=O)(Nc1nc(-c2sccc2Cl)cs1)c1cc(F)c(Br)cc1F the IC50 [3] was 63 nM.
For O=C(NC12CC3CC(CC(C3)C1)C2)C1NCCS1 (configuration not stated), the IC50 [4] was 2130 nM.
Compound CC1=C2[C@H](C)[C@@H](C)O[C@]23O[C@H](C)[C@@H](C)O[C@@]3(O)CC1=O has an IC50 [5] of 9070 nM.
With O=C1/C(=C\c2ccccc2C(F)(F)F)CCC/C1=C\c1ccccc1C(F)(F)F the IC50 [6] was 100 nM and the IC50 [7] was > 100000 nM.
NC(=O)C12CC3CC(CC(NC(=O)CN4CCCN(c5c(Cl)cc(Cl)cc5Cl)S4(=O)=O)(C3)C1)C2 gave an IC50 [8] of 0.4 nM.
Cc1nc(NS(=O)(=O)c2ccc(Cl)cc2Cl)sc1CC(Cl)(Cl)Cl gave an IC50 [3] of 55 nM.
In the case of CN(CC1(C(=O)NC23CC4CC(C2)CC(C(N)=O)(C4)C3)CC1)S(=O)(=O)c1ccccc1F, the IC50 [9] is reported as 0.02 nM, the IC50 [10] is reported as 2.8 nM and the IC50 [11] is reported as 2.43 nM.
NC(=O)C12CC3CC(CC(NC(=O)C4SCCN4S(=O)(=O)c4ccccc4F)(C3)C1)C2 (configuration not stated) showed an IC50 [12] of 3 nM and an IC50 [4] of 5.2 nM.
In the case of O=C(CN1C(C(=O)c2ccccc2)=C(O)c2ccccc2S1(=O)=O)c1ccccc1, the IC50 [13] is reported as 210 nM.
Work on O=C(O[C@@H]1Cc2c(O)cc(O)cc2O[C@@H]1c1cc(O)c(O)c(O)c1)c1cc(O)c(O)c(O)c1 [EPIGALOCATECHIN GALLATE] yielded an IC50 [14] of 20900 nM.
For C[C@@H]1CN(c2ccc(F)cc2C(F)(F)F)CCN1S(=O)(=O)c1cccc([C@@](C)(O)C(F)(F)F)c1 [HSD-016], the IC50 [2] was 1 nM and 8 nM, the IC50 [1] was 11 nM and the IC50 [15] was 8 nM.
With Oc1ccc(/C=C/c2cc(O)cc(O)c2)cc1 [RESVERATROL] the IC50 [16] was 35200 nM and the IC50 [17] was 1000 nM.
